# From patent US6232450A, “Inhibition of human fucosyltransferases with N-linked Lewis-x and LacNAc analogs” (The Scripps Research Institute, priority 1999, dated 2001)
# Molecular target: T1, FucT V (Homo sapiens, UniProt Q11128)
# T1 sequence (Q11128 1-374): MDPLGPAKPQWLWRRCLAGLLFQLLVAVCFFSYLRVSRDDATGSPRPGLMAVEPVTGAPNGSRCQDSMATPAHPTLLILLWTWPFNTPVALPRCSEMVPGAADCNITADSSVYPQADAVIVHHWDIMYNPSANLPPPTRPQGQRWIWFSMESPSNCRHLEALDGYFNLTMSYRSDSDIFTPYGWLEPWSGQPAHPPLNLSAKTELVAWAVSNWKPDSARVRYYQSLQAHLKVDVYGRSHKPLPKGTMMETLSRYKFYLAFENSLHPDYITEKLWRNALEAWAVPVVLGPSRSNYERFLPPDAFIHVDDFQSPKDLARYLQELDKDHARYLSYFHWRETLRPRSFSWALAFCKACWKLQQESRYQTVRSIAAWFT
# Assay: Test whether inhibitor is a slow substrate or an inactivator of FucT V (pre-incubation, then GDP-[U-14C]-fucose transfer)
# Format: biochemical
# Conditions: 0.010 mM inhibitor, 2.1 munits FucT V, 0.30 mM LacNAc-b-O-(CH2)5CO2CH3, 10 mM MnCl2, 100 mM MES pH 6.0, incubation 0-80 min at room temperature
# Description: A 0.350 mL solution that contained 10 mM MnCl2, 2.1 munits FucT V, 0.30 mM LacNAc-b-O-(CH2)5 CO2 CH3, 0.010 mM inhibitor (7a, 7b, 7c, 8a, 8b, or 8c), and 100 mM MES (pH 6.0). This solution was subject to incubation at room temperature for various time periods (0, 3, 10, 20, 30, 60, 80 min). After the incubation time, a 0.050 mL aliquot was removed and GDP-[U-^14 C]-fucose was added to a final concentration of 0.050 mM to initiate the fucosyltransfer reaction. After a 30 minute reaction time period, the solution was passed through a Dowex 1 column and the amount of product determined.
row,Compound,slow substrate or inactivator of FucT V
1,CCCO[C@@H]1O[C@H](COCc2ccccc2)[C@@H](O)[C@H](NCCN2[C@H](COCc3ccccc3)[C@@H](OCc3ccccc3)[C@H](OCc3ccccc3)[C@H](OCc3ccccc3)[C@@H]2C)[C@H]1NC(C)=O [7a],not a slow substrate or an inactivator
2,CCCO[C@@H]1O[C@H](CO)[C@@H](O)[C@H](N(C)CCN2[C@H](CO)[C@@H](O)[C@H](O)[C@H](O)[C@@H]2C)[C@H]1NC(C)=O [7b],not a slow substrate or an inactivator
3,CCCO[C@@H]1O[C@H](CO)[C@@H](O)[C@H](NCCN2[C@H](CO)[C@@H](O)[C@H](O)[C@H](O)[C@@H]2C)[C@H]1NC(C)=O [7c],not a slow substrate or an inactivator
4,CCCO[C@@H]1O[C@H](COCc2ccccc2)[C@@H](O[C@@H]2O[C@H](CO)[C@H](O)[C@H](O)[C@H]2O)[C@H](NCCN2[C@H](COCc3ccccc3)[C@@H](OCc3ccccc3)[C@H](OCc3ccccc3)[C@H](OCc3ccccc3)[C@@H]2C)[C@H]1NC(C)=O [8a],not a slow substrate or an inactivator
5,CCCO[C@@H]1O[C@H](CO)[C@@H](O[C@@H]2O[C@H](CO)[C@H](O)[C@H](O)[C@H]2O)[C@H](N(C)CCN2[C@H](CO)[C@@H](O)[C@H](O)[C@H](O)[C@@H]2C)[C@H]1NC(C)=O [8b],not a slow substrate or an inactivator
6,CCCO[C@@H]1O[C@H](CO)[C@@H](O[C@@H]2O[C@H](CO)[C@H](O)[C@H](O)[C@H]2O)[C@H](NCCN2[C@H](CO)[C@@H](O)[C@H](O)[C@H](O)[C@@H]2C)[C@H]1NC(C)=O [8c],not a slow substrate or an inactivator

# Test system: not given
# Assay: not given
# Conditions: known from literature (Hanozet et al.); cited from earlier work
row,Compound,pKa
1,C[C@@H]1N[C@H](COCc2ccccc2)[C@@H](OCc2ccccc2)[C@H](OCc2ccccc2)[C@@H]1OCc1ccccc1 [compound 5],unusually low
